Data as given in article PMC10507085, “Pharmacological inhibition of TBK1/IKKε blunts immunopathology in a murine model of SARS-CoV-2 infection” (Nature Communications, 2023).

Legend:
Assay in all cases: biochemical
Set-up in all cases: KINOMEscan competition binding, DNA-tagged kinase against immobilised ligand, qPCR read-out
Conditions in all cases: read-out: Percent Control
CIT = CIT (Homo sapiens, UniProt O14578)
AXL = AXL (Homo sapiens, UniProt P30530)
PRKCE = PRKCE (Homo sapiens, UniProt Q02156)
MKNK2 = MKNK2 (Homo sapiens, UniProt Q9HBH9)
PIP5K1A = PIP5K1A (Homo sapiens, UniProt Q99755)
Sequence of PIP5K1A (Q99755 whole entry): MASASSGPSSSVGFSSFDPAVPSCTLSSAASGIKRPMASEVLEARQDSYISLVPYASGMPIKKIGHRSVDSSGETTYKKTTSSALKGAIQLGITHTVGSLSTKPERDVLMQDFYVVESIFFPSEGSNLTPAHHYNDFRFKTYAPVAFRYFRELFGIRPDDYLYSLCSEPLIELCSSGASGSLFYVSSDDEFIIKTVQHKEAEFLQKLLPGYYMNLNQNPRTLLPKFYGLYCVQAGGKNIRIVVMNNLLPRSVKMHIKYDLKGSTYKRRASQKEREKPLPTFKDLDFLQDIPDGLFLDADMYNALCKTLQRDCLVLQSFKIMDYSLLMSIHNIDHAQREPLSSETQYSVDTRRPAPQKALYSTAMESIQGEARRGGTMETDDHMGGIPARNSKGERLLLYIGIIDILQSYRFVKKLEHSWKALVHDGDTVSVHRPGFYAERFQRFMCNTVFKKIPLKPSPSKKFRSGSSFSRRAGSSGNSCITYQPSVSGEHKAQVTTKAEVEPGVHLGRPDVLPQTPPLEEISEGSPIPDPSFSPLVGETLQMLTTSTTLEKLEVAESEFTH

OXSR1 = OXSR1 (Homo sapiens, UniProt O95747)
PRKAA1 = PRKAA1 (Homo sapiens, UniProt Q13131)
Sequence of PRKAA1 (Q13131 whole entry): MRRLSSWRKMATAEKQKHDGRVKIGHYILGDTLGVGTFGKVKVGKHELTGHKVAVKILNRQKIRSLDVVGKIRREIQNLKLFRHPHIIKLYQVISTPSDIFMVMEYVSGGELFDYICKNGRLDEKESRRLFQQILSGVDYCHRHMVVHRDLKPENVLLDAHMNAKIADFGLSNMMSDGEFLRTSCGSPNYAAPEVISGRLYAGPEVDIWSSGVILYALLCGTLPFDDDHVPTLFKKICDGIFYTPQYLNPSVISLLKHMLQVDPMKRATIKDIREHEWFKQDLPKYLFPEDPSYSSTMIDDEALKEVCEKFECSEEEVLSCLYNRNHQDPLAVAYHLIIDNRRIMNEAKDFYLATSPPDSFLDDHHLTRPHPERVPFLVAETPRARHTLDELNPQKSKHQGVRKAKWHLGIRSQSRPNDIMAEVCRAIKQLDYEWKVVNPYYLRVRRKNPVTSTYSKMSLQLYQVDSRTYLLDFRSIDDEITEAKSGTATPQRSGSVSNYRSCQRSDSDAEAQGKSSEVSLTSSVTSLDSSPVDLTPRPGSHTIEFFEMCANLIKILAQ

LYN = LYN (Homo sapiens, UniProt P07948)
BRSK2 = BRSK2 (Homo sapiens, UniProt Q8IWQ3)
MAPK11 = MAPK11 (Homo sapiens, UniProt Q15759)
Sequence of MAPK11 (Q15759 whole entry): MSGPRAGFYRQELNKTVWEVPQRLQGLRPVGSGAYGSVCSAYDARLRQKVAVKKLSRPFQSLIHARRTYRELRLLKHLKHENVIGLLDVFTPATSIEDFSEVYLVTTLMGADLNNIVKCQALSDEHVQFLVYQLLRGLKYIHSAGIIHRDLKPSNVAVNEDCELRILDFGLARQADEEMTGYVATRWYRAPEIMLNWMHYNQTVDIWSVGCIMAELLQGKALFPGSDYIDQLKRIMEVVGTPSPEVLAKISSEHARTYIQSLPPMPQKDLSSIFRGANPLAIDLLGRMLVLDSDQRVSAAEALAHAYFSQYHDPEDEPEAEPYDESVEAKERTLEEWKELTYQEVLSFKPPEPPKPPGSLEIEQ

PDGFRA = PDGFRA (Homo sapiens, UniProt P16234)
CSNK1A1L = CSNK1A1L (Homo sapiens, UniProt Q8N752)
PLK4 = PLK4 (Homo sapiens, UniProt O00444)
FES = FES (Homo sapiens, UniProt P07332)
TEC = TEC (Homo sapiens, UniProt P42680)
Sequence of TEC (P42680 whole entry): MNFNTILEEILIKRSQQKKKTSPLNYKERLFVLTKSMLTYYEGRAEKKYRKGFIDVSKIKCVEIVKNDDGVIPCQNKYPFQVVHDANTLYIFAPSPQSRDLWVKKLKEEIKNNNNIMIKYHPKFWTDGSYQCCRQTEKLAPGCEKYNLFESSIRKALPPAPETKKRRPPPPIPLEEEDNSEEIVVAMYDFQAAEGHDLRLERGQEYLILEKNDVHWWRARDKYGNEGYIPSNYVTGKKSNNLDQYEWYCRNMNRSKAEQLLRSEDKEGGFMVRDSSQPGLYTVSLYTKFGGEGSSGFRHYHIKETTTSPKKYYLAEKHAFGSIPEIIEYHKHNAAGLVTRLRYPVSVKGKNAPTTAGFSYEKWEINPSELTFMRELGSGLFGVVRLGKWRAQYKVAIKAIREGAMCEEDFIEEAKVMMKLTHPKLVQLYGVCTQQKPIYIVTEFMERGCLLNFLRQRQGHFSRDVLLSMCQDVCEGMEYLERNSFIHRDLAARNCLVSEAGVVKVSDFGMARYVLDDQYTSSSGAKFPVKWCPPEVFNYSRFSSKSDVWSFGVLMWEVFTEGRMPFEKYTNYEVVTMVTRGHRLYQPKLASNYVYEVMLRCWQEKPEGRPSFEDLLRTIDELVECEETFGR

ERBB2 = ERBB2 (Homo sapiens, UniProt P04626)
ROS1 = ROS1 (Homo sapiens, UniProt P08922)
CDC42BPA = CDC42BPA (Homo sapiens, UniProt Q5VT25)
Sequence of CDC42BPA (Q5VT25 whole entry): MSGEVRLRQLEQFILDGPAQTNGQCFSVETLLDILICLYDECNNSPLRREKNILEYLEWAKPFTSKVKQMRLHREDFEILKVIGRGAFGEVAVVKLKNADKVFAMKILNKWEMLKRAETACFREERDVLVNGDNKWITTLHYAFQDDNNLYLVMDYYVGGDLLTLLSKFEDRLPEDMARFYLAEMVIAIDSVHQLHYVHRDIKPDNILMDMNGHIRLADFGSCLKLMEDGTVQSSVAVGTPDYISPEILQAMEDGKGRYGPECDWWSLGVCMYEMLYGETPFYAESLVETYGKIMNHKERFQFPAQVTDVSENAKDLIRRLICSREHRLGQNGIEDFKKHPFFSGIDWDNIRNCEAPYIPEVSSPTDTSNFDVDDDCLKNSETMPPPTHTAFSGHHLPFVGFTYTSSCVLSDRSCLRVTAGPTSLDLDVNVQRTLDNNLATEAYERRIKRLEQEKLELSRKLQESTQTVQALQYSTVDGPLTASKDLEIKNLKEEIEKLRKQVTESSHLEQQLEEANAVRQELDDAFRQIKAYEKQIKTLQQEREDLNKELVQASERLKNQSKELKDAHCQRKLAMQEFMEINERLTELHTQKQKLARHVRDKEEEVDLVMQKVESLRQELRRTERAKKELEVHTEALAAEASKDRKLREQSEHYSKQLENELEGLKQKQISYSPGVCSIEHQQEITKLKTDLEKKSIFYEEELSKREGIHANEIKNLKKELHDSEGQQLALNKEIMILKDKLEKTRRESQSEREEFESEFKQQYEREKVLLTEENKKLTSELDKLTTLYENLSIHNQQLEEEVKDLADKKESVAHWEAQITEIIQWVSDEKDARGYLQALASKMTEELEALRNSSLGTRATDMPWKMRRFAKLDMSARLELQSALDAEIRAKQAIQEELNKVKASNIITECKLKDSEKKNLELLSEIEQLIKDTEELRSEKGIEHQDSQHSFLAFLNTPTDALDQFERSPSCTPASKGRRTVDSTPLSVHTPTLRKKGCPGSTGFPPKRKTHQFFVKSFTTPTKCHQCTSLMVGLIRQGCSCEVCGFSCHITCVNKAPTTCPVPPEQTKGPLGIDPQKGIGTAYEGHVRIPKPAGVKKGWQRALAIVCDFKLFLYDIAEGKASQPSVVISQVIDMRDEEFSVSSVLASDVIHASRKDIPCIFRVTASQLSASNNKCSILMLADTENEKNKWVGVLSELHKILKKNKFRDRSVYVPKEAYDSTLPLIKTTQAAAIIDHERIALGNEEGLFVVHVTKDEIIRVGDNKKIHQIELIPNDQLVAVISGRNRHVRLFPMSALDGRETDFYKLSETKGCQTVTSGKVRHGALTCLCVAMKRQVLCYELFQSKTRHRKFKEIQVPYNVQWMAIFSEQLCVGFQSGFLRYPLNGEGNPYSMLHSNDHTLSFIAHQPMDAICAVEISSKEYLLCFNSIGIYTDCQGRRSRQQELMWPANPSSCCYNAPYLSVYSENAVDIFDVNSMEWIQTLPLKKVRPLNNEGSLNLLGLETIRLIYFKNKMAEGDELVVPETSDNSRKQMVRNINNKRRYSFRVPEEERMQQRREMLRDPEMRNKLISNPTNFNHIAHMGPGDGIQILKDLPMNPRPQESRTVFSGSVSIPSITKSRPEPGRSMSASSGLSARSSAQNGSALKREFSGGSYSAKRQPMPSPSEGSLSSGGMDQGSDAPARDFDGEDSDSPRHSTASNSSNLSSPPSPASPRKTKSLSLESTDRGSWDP

CASK = CASK (Homo sapiens, UniProt O14936)
Sequence of CASK (O14936 whole entry): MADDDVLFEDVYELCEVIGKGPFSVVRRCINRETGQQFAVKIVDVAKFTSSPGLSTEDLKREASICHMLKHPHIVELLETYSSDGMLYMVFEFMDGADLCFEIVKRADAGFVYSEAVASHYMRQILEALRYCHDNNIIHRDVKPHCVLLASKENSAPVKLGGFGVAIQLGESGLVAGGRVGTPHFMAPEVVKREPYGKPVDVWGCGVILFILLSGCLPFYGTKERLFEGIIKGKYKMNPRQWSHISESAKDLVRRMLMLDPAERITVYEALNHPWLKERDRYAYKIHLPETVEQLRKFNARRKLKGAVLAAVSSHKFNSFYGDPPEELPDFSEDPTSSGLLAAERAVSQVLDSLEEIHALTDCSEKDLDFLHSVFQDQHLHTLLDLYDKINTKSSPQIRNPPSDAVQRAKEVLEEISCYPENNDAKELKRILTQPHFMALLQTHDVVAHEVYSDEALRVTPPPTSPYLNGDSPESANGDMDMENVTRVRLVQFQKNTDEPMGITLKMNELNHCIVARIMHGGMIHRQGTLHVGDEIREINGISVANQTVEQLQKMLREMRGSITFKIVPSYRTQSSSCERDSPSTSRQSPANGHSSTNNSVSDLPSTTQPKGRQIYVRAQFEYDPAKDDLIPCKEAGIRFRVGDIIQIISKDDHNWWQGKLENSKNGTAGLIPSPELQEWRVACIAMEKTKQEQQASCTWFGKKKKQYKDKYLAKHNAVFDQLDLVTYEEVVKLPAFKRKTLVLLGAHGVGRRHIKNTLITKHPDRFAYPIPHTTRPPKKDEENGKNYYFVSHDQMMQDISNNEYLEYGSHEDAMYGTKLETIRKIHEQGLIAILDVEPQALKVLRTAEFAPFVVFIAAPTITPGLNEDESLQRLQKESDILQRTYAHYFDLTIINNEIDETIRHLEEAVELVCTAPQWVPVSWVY

AURKC = AURKC (Homo sapiens, UniProt Q9UQB9)

## Oc1ccc(C2=Cc3ccc(O)cc3OC2)cc1 [compound 1, idronoxil]
CIT
  remaining binding at 10 µM: 62%
AXL
  remaining binding at 10 µM: 95%
PRKCE
  remaining binding at 10 µM: 92%
MKNK2
  remaining binding at 10 µM: 54%
PIP5K1A
  remaining binding at 10 µM: 75%
OXSR1
  remaining binding at 10 µM: 75%
PRKAA1
  remaining binding at 10 µM: 100%
LYN
  remaining binding at 10 µM: 71%
BRSK2
  remaining binding at 10 µM: 84%
MAPK11
  remaining binding at 10 µM: 85%
PDGFRA
  remaining binding at 10 µM: 29%
CSNK1A1L
  remaining binding at 10 µM: 96%
PLK4
  remaining binding at 10 µM: 88%
FES
  remaining binding at 10 µM: 95%
TEC
  remaining binding at 10 µM: 93%
ERBB2
  remaining binding at 10 µM: 88%
ROS1
  remaining binding at 10 µM: 73%
CDC42BPA
  remaining binding at 10 µM: 98%
CASK
  remaining binding at 10 µM: 65%
AURKC
  remaining binding at 10 µM: 74%
